Experiment: Aqueous solubility of steviol glycosides and blends
Format: physicochemical
Procedure: A number of methods are known in the art for determining aqueous solubility. In one such method, solubility can be determined by a solvent addition method in which a weighed sample is treated with aliquots of aqueous solvent. The mixture is generally vortexed and/or sonicated between additions to facilitate dissolution. Complete dissolution of the test material is determined by visual inspection. Solubility is calculated based on the total solvent used to provide complete dissolution.
Another method for determining solubility is by measuring the turbidity (NTU units) of a composition using a turbidimeter, such as HACH 2100 AN. In a typical experiment, a portion of the composition to be measured is added to a portion of aqueous solvent (or visa versa) at room temperature. Turbidity is measured after waiting from 2-10 minutes to observe visual dissolution of the portion. Then, another portion of the composition is added, dissolution is observed and turbidity is measured again. This process is repeated until turbidity reaches exceeds beyond acceptable values, typically around 4 NTU-10 NTU. While turbidity measurements can be very useful in determining solubility, it will not detect solids collected on the bottom of a container. Accordingly, it is important to shake the container prior to determining turbidity and confirm a given turbidity measurement with visual inspection of dissolution. […]

Row | aqueous solubility [wt %] | Structure (SMILES)
1 | 0.05 | C=C1C[C@@]23CC[C@H]4[C@@](C)(CCC[C@@]4(C)C(=O)O[C@@H]4O[C@H](CO)[C@@H](O)[C@H](O)[C@H]4O[C@@H]4O[C@H](CO)[C@@H](O)[C@H](O)[C@H]4O)[C@@H]2CC[C@]1(O[C@@H]1O[C@H](CO)[C@@H](O)[C@H](O[C@@H]2O[C@H](CO)[C@@H](O)[C@H](O)[C@H]2O)[C@H]1O[C@@H]1O[C@H](CO)[C@@H](O)[C@H](O)[C@H]1O)C3 [Pure reb D, rebaudioside D]
2 | 0.1 | C=C1C[C@@]23CC[C@H]4[C@@](C)(CCC[C@@]4(C)C(=O)O[C@@H]4O[C@H](CO)[C@@H](O)[C@H](O[C@@H]5O[C@H](CO)[C@@H](O)[C@H](O)[C@H]5O)[C@H]4O[C@@H]4O[C@H](CO)[C@@H](O)[C@H](O)[C@H]4O)[C@@H]2CC[C@]1(O[C@@H]1O[C@H](CO)[C@@H](O)[C@H](O[C@@H]2O[C@H](CO)[C@@H](O)[C@H](O)[C@H]2O)[C@H]1O[C@@H]1O[C@H](CO)[C@@H](O)[C@H](O)[C@H]1O)C3 [Pure reb M, 13-[(2-O-β-D-glucopyranosyl-3-O-β-D-glucopyranosyl-β-D-glucopyranosyl)oxy] ent kaur-16-en-19-oic acid-[(2-O-β-D-glucopyranosyl-3-O-β-D-glucopyranosyl-β-D-glucopyranosyl) ester]]
